According to paper PMC7793009 (ACS infectious diseases, 2020):
pIC50: −log10 of the molar value. Read-outs that look alike come from different tables or passages of the source.

Key:
p62-induced ARE activity = assay: cells; format: cell-based; conditions: read-out: ARE/p62 IC50
HEK293T cells = conditions: 24 h, ATP content (CellTiter-Glo)
[1] = tested on: ARE activity induced by over-expression of Nrf2; assay: cells; format: cell-based; conditions: for pIC50: read-out: ARE/Nrf2 IC50
[2] = tested on: tBHQ-induced ARE activity; assay: cells; format: cell-based; conditions: read-out: ARE/GFP/tBHQ IC50
NF-κB = assay: cells; format: cell-based; conditions: read-out: NF-κB IC50
[3] = molecular target: constitutively expressed firefly luciferase (ce-FF) (Photinus pyralis, UniProt P08659); assay: cell-based; format: cell-based
endogenous Nrf2 = format: cell-based
[4] = tested on: mVP24-induced ARE activity; assay: siRNA; format: cell-based; conditions: two p53 siRNAs vs scramble, mVP24/ARE HEK293T, 24 h treatment
[5] = tested on: mVP24-induced ARE activity; assay: ARE/mVP24 firefly luciferase reporter assay; format: cell-based; conditions: plateau around 1 μM of compound
in vitro = conditions: human
Flag-tagged mVP24 = format: cell-based, Marburg virus

Sequence of constitutively expressed firefly luciferase (ce-FF) (P08659 whole entry): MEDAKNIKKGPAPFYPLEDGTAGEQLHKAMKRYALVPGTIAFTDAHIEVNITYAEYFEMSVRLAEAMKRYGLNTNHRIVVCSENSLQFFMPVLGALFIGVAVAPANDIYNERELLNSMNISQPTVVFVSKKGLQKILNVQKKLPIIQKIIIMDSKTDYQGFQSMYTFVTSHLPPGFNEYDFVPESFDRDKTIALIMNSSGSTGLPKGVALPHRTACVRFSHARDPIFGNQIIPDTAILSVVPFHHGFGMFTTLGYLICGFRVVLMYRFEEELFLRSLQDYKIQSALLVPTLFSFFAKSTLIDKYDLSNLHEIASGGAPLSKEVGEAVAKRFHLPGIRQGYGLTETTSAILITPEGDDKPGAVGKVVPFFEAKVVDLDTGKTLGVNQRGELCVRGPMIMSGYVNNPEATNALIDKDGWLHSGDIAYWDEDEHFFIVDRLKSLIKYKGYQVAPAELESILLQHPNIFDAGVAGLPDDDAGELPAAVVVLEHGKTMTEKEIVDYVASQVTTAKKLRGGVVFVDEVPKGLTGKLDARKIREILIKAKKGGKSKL

Question: With Nc1ncnc2c1c(I)cn2[C@@H]1O[C@H](CO)[C@@H](O)[C@H]1O [5-iodotubercidin] as the compound, how does the pIC50 (p62-induced ARE activity) read?
Answer: 7.24

Question: What about the CC50 (HEK293T cells) of the same compound?
Answer: > 50 µM

Question: What about the pIC50 [1] of the same compound?
Answer: 5.92

Question: What about the pIC50 [2] of the same compound?
Answer: 6.70

Question: And the pIC50 (NF-κB)?
Answer: 5.19

Question: What about the pIC50 ([3]; read-out: Ce-FF IC50) of the same compound?
Answer: 4.82

Question: For O=C(N[C@@H]1CCCc2c1[nH]c1ccc(Cl)cc21)c1ccccn1 [GSK983], which “Nrf2 expression relative to DMSO control” value (endogenous Nrf2) is on record?
Answer: decreased

Question: What about the “effect of p53 knockdown on inhibition of mVP24-induced ARE activity” value [4] of the same compound?
Answer: did not result in a reversal of inhibition

Question: With COc1cc([C@@H]2c3cc4c(cc3[C@H](O)[C@H]3COC(=O)[C@H]23)OCO4)cc(OC)c1OC [Podophyllotoxin, podophyllotoxin] as the compound, how does the pIC50 (p62-induced ARE activity; Homo sapiens, HEK-293T, 24 h) read?
Answer: 5.51

Question: What about the “plateau of inhibitory activity against mVP24-induced ARE activity” value [5] of the same compound?
Answer: approximately 80%

Question: What about the “inhibition of ARE activity following over-expression of Nrf2 (in words)” value ([1]; ARE/Nrf2 assay) of the same compound?
Answer: did not inhibit

Question: What about the pIC50 ([1]; Homo sapiens, HEK-293T, 24 h) of the same compound?
Answer: < 4.30

Question: And the pIC50 ([2]; Homo sapiens, HEK-293T, 24 h)?
Answer: 7.59

Question: And the pIC50 (NF-κB; Homo sapiens, HEK-293T, 6 h)?
Answer: < 4.30

Question: What about the CC50 at 24 h (in vitro) of the same compound?
Answer: > 50 µM

Question: And the pIC50 [3]?
Answer: < 4.30

Question: And the “Nrf2 expression relative to DMSO control” value (endogenous Nrf2; ARE/mVP24 HEK293T cells, 1 and 5 μM, 24 h, western blot)?
Answer: affected

Question: And the “mVP24 expression relative to DMSO control” value (Flag-tagged mVP24)?
Answer: affected
